# Source: PMC7796107, “Efficient Separation of Phytochemicals from Muehlenbeckia volcanica (Benth.) Endl. by Polarity-Stepwise Elution Counter-Current Chromatography and Their Antioxidant, Antiglycation, and Aldose Reductase Inhibition Potentials” (Molecules, 2021)
# Where two headings read alike, the source gives them in different places. Marks after values point to notes of the source that are not given here.
# Legend:
# [1] = DPPH radical scavenging assay; format: biochemical; details: Trolox equivalent antioxidant capacity
# Description: (§1) The antioxidant activities of the 70% methanol extract of M. volcanica and the separated compounds were evaluated using DPPH, ABTS, and ORAC assays. The results were expressed as Trolox equivalent antioxidant capacity (TEAC, µg Trolox/µg extract or µM Trolox/µM compound), which were calculated with the equations obtained from the calibration curves of Trolox standards (final concentrations) versus their DPPH and ABTS radical inhibition (%) and the net AUC value (ORAC assay).
# The DPPH radical scavenging assay was carried out using an EL800 microplate reader (Bio-Tek Instruments, Winooski, VT, USA). Briefly, 180 μL of freshly prepared DPPH solution (0.32 mM in methanol) was mixed with 20 μL of sample (dissolved in methanol, extract 250 µg/mL; compounds 62.5–1000 µM) in a 96-well plate. The mixture was incubated for 20 min in the dark at 25 °C, and then, the absorbance was measured at […]. […] Results are expressed in µg Trolox equivalents/µg extract or µM Trolox equivalents/µM compound. The DPPH radical scavenging activity (%) is calculated using Equation (1):(1) %inhibition=1−Asample−Ablank1/Acontrol−Ablank2×100%, where Asample is the absorbance of DPPH solution with a sample, Ablank1 is the absorbance of the test sample without DPPH, Acontrol is the absorbance of DPPH solution without a sample, Ablank2 is the absorbance of methanol, without DPPH or a sample.
# [2] = ABTS radical scavenging assay; format: biochemical; details: Trolox equivalent antioxidant capacity
# Description: as §1
# The ABTS radical scavenging assay was carried out using the same EL800 microplate reader. Briefly, 0.2 mM of ABTS diammonium salt was prepared in 3.5 mM of potassium persulfate aqueous solution, and the mixture solution was then diluted 10 times using distilled water. The diluted solution was allowed to stand for 24 h in the dark at room temperature (about 25 °C) to produce ABTS radical cations (ABTS^+). For reaction, 290 μL of ABTS^+ solution was mixed with 10 μL of sample (dissolved in methanol, extract 62.5–125 µg/mL; compounds 20–250 µM) in a 96-well plate, and the mixture solution was allowed to react for 10 min at 25 °C in the dark. Then, the absorbance was measured at 750 nm. […] Results are expressed in µg Trolox equivalents/µg extract or µM Trolox equivalents/µM compound. The ABTS radical scavenging activity (%) is calculated using Equation (1) where Asample is the absorbance of ABTS^+ solution with a sample, Ablank1 is the absorbance of the test sample without ABTS^+, Acontrol is the absorbance of ABTS^+ solution without a sample, Ablank2 is the absorbance of buffer, without ABTS^+ or a sample.
# [3] = ORAC (oxygen radical absorbance capacity) assay; format: biochemical; details: Trolox equivalent antioxidant capacity, ORAC assay (peroxyl radicals)
# Description: as §1
# The ORAC assay was carried out using a Fluoroskan Ascent FL microplate reader (Thermo, Waltham, MA, USA) using the method described previously with minor modifications. Antioxidants can scavenge the peroxyl radicals generated by AAPH, which prevent the degradation of the fluorescein and, therefore, prevent the loss of the fluorescence of fluorescein. Briefly, fluorescein sodium salt (117 nM) and AAPH (40 mM) were freshly prepared in 0.1 M phosphate-buffered saline (PBS, pH 7.4). For reaction, 120 µL of fluorescein sodium salt (117 nM) and 20 µL of sample (dissolved in methanol, extract 10–20 µg/mL; compounds 10–160 µM) were mixed in a black 96-well plate and pre-incubated for 15 min at 37 °C. Next, 60 µL of AAPH (40 mM) was added, and the fluorescence was measured 100 times (interval 1 min) at excitation and emission wavelengths of 485 nm and 538 nm, respectively, by the microplate reader maintained at 37 °C. […] The relative ORAC values are expressed in µg Trolox equivalents/µg extract or µM Trolox equivalents/µM compound.
# aldose reductase (AR) = target: T1, aldose reductase (AR) (Rattus norvegicus, UniProt P07943); assay: Aldose reductase (AR) inhibition assay, rat lens homogenate; format: biochemical, Sprague–Dawley rats; details: for IC50: rat lens AR homogenate
# T1 construct: centrifuged at 10,000× g for 30 min at 4 °C (Centrifuge 5417R, Eppendorf, Germany) to obtain AR homogenate (in the supernatant); from tissue; host or cells: eye lenses of Sprague–Dawley rats
# Description: For the extraction of AR, the rat eye lenses were grounded in a precooled mortar (−70 °C) and extracted using 0.1 M PBS (pH 6.2; about 0.5 mL of PBS per two frozen rat lenses).
# A 96-well plate-based AR inhibition assay was used in this study, which was modified from a previous method. In principle, the rate of the absorbance decrease of NADPH at 340 nm (OD340 nm) was used for evaluation of the AR inhibitory activity. […] Then, as soon as 20 μL of the substrate (DL-glyceraldehyde dimer, 25 mM in 0.1 M PBS, pH 7.0) was added, the absorbance of the reaction solution at 340 nm was measured for 6 min using an Epoch microplate spectrophotometer (BioTek Instruments, Highland Park, IL, USA). […] The samples were first prepared at high concentrations in DMSO or in a mixture of DMSO and water and then diluted using water shortly before the experiment. The concentration of DMSO was kept within 0.2% (v/v) in the reaction system. […] The AR inhibition ratio (%) for the samples was calculated using Equation (4):(4) %inhibition=1−Slopes−Slopeb/Slopec−Slopeb×100%, where Slopec, Slopes, and Slopeb are the slopes obtained from the OD340 nm versus the reaction time (min) dotted lines of the control group (without sample), sample group (with enzyme and sample), and blank group (without enzyme or sample), respectively. |Slope| is the absolute value of Slope.
# [4] = system: streptozotocin-induced diabetic rats; details: cited from earlier work
# [5] = cited from earlier work
# diabetic rats = details: cited from earlier work
# [6] = system: streptozotocin-induced diabetic cats; details: cited from earlier work
# [7] = target: fructose-mediated bovine serum albumin (BSA) glycation (Bos taurus, UniProt P02769); assay: Antiglycation assay, fructose-mediated BSA glycation model; details: for inhibition at 12.5 µM / inhibition at 25 µM / inhibition at 50 µM / inhibition at 100 µM: read-out: Antiglycation activity, inhibition (%)
# fructose-mediated bovine serum albumin (BSA) glycation, sequence (P02769 25-607): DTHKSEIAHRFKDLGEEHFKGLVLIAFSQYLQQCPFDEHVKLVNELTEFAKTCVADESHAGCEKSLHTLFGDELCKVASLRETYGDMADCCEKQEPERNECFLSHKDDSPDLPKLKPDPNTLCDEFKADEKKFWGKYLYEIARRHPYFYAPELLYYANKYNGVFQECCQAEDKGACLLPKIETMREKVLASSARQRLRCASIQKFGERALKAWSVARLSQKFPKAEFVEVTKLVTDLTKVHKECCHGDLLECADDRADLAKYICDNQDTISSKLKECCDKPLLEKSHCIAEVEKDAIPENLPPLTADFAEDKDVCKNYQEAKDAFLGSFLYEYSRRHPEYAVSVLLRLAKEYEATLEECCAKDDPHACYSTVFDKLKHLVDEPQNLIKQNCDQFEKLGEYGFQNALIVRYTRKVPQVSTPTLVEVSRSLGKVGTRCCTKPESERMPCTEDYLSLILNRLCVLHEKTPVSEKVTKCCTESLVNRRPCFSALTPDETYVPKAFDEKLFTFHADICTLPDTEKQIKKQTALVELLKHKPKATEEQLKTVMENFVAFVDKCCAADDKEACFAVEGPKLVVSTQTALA
# diabetic Octodon degus = system: diabetic Octodon degus; set-up: method as in PMID 401544; details: oral administration; cited from earlier work
# [8] = read-out: AR inhibition activity, inhibition (%)
# [9] = 6.25 µM, read-out: AR inhibition activity, inhibition (%)
# [10] = 12.5 µM, read-out: AR inhibition activity, inhibition (%)
# [11] = 25 µM, read-out: AR inhibition activity, inhibition (%)
# [12] = 50 µM, read-out: AR inhibition activity, inhibition (%)
SMILES,"TEAC, DPPH [1]","TEAC, ABTS [2]","TEAC, ORAC [3]",inhibition at 3.125 µM (aldose reductase (AR); [8]),inhibition at 6.25 µM (aldose reductase (AR); [8]),inhibition at 12.5 µM (aldose reductase (AR); [8]),inhibition at 25 µM (aldose reductase (AR); [8]),Effect on oxidative stress [4],inhibition at 12.5 µM [7],inhibition at 25 µM [7],inhibition at 50 µM [7],inhibition at 100 µM [7],IC50 [7],inhibition at 6.25 µM (aldose reductase (AR); [9]),inhibition at 12.5 µM (aldose reductase (AR); [10]),inhibition at 25 µM (aldose reductase (AR); [11]),inhibition at 50 µM (aldose reductase (AR); [12]),also measured
"O=c1c(O)c(-c2ccc(O)c(O)c2)oc2cc(O)cc(O)c12 [Quercetin (10), quercetin]",2.14 ± 0.03 ^b µM trolox/µM Compound,3.61 ± 0.03 ^a µM trolox/µM Compound,6.93 ± 0.30 ^a µM trolox/µM Compound,12.9 ± 2.11%,26.3 ± 1.21%,43 ± 3.02%,60 ± 1.21%,ameliorate the oxidative stress,19.4 ± 1.76%,35.4 ± 0.92%,67.47 ± 0.24%,84.3 ± 1.39%,–,–,–,–,–,"TEAC, ABTS ([2]; listed as quercetin): 3.61 µM trolox/µM Compound; Inhibition of AGEs by trapping methylglyoxal [5]: inhibit AGEs by trapping methylglyoxal; Progression of lens opacification (diabetic rats): delay the progression of lens opacification; Impaired cardiac function [6]: partially reverse the impaired cardiac function"
"C[C@@H]1O[C@@H](Oc2c(-c3ccc(O)c(O)c3)oc3cc(O)cc(O)c3c2=O)[C@H](O)[C@H](O)[C@H]1O [Quercitrin (9), quercitrin]",0.92 ± 0.01 ^e µM trolox/µM Compound,1.07 ± 0.05 ^e µM trolox/µM Compound,5.32 ± 0.29 ^c µM trolox/µM Compound,94.35 ± 0.3%,–,–,–,ameliorate the oxidative stress,32.3 ± 0.24%,75.2 ± 2.52%,89.1 ± 1.26%,94.3 ± 1.39%,17.6 ± 0.28 µM,–,–,–,–,inhibition at 0.049 µM (aldose reductase (AR); [8]): 12 ± 0.82%; inhibition at 0.098 µM (aldose reductase (AR); [8]): 33.3 ± 2.17%; inhibition at 0.195 µM (aldose reductase (AR); [8]): 54.6 ± 1.78%; Inhibition of AGEs by trapping methylglyoxal [5]: inhibit AGEs by trapping methylglyoxal; Accumulation of sorbitol in the lens (diabetic Octodon degus): significantly decreased; Onset of cataract (diabetic Octodon degus): delayed
"O=C(O)c1cc(O)c(O)c(O)c1 [Gallic acid (3), gallic acid]",3.01 ± 0.04 ^a µM trolox/µM Compound,3.35 ± 0.06 ^b µM trolox/µM Compound,1.43 ± 0.08 ^d µM trolox/µM Compound,–,–,–,–,ameliorate the oxidative stress,< 0%,< 0%,3.69 ± 2.97%,8.42 ± 1.27%,–,< 0%,4.16 ± 5.43%,4.16 ± 1.81%,13.5 ± 1.21%,"TEAC, DPPH ([1]; listed as gallic acid): 3.01 µM trolox/µM Compound"
"O=C(O)[C@H]1O[C@@H](Oc2c(-c3ccc(O)c(O)c3)oc3cc(O)cc(O)c3c2=O)[C@H](O)[C@@H](O)[C@@H]1O [Miquelianin (7), miquelianin]",1.97 ± 0.02 ^c µM trolox/µM Compound,0.99 ± 0.05 ^f µM trolox/µM Compound,5.85 ± 0.20 ^b µM trolox/µM Compound,29.7 ± 1.21%,44.5 ± 2.11%,59.1 ± 6.86%,76.7 ± 1.21%,–,24.9 ± 2.12%,49.4 ± 1.26%,78 ± 2.28%,90 ± 1.92%,24.5 ± 0.52 µM,–,–,–,–,IC50 (aldose reductase (AR)): 7.93 ± 0.4 µM
"O=C(O)C1=C[C@@H](O)[C@@H](O)[C@H](O)C1 [Shikimic acid (2), shikimic acid]",–,–,–,–,–,–,–,–,< 0%,< 0%,< 0%,< 0%,–,< 0%,0.32 ± 1.21%,5.86 ± 5.42%,7.36 ± 0.3%,–
"Cl.N=C(N)NN [Aminoguanidine hydrochloride, aminoguanidine hydrochloride, reference compound]",–,–,–,–,–,–,–,–,–,–,–,–,–,–,–,–,–,"Antiglycation activity, inhibition (%) ([7]; 1000 µM): 10.99 ± 0.07%; Antiglycation activity, inhibition (%) ([7]; 2000 µM): 44.58 ± 0.54%; Antiglycation activity, inhibition (%) ([7]; 4000 µM): 81.26 ± 0.88%; Antiglycation IC50 ([7]; fructose-mediated BSA glycation, 14 days, 37 °C): 317.36 µg/mL; IC50 ([7]; read-out: Antiglycation activity, IC50, fructose-mediated BSA glycation): 2181 ± 8.11 µM"
"O=C(O)c1ccc(O)c(Nc2cc(C(=O)O)ccc2O)c1 [4,4′-dihydroxy-3,3′-imino-di-benzoic acid]",1.38 ± 0.05 ^d µM trolox/µM Compound,1.27 ± 0.03 ^c µM trolox/µM Compound,5.75 ± 0.26 ^b µM trolox/µM Compound,–,–,–,–,–,< 0%,14.9 ± 3.87%,44.5 ± 2.54%,68.4 ± 0.92%,60.5 ± 2.62 µM,8.57 ± 0.06%,14.4 ± 0.6%,27.2 ± 0.36%,53.3 ± 2.76%,IC50 (aldose reductase (AR)): 47 ± 2.28 µM
"O=C(O)c1ccc(O)c(O)c1 [Protocatechuic acid (4), protocatechuic acid]",0.72 ± 0.01 ^f µM trolox/µM Compound,0.88 ± 0.03 ^g µM trolox/µM Compound,5.79 ± 0.32 ^b µM trolox/µM Compound,–,0.96 ± 2.11%,2.67 ± 2.71%,7.14 ± 0.6%,ameliorate the oxidative stress,5.26 ± 4.29%,11.4 ± 3.92%,36.1 ± 0.78%,48.4 ± 1.76%,–,–,–,–,–,inhibition at 50 µM (aldose reductase (AR); [8]): 7.78 ± 1.51%
